Measured values from US20200080091A1, “Methods for Treating Obesity of a Subject Suffering from Obesity” (NAKAJIMA Toshihiro, priority 2012, published 2020).

Columns and labels:
synoviolin protein = biological target: T1, synoviolin protein (Homo sapiens, UniProt Q86TM6); conditions: disclosed in Japanese Patent Application Publication No. 2008-74753; cited from earlier work
T1 construct: MBP-Syno ΔTM-His means synoviolin in which transmembrane domain has been deleted

3T3-L1 cells = assay: adipocyte differentiation induction of 3T3-L1 cells (Oil Red O staining); assay type: cell-based, mice; conditions: 200 μmol siRNA introduced by Lipofectamine2000 two days before induction of differentiation; compared to a control; FIG. 4
Procedure: 3T3-L1 cells, which are preadipocytes of mice, were cultivated in Dulbecco's Modified Eagle Medium (DMEM; High Glucose) containing 10% fetal bovine serum (FBS) for 3 days after reaching confluent state. 500 μM of isobutyl-methylxanthine (IBMX), 1 μM of Dexamethasone, and 5 μg/mL of Insulin were added to induce differentiation. At the same time, 10 μM of LS-102 (ubiquitination activity inhibitor of synoviolin) or DMSO was added. After cultivation for 3 days, the medium was replaced with medium containing 4 μg/mL of Insulin and 10 μM of LS-102 or DMSO was added. After cultivation for 3 days, the medium was replaced with DMEM (High Glucose) containing 10% FBS to cultivate for 3 days. For siRNA, 200 μmol of siRNA Syno770 (sense strand consists of the following SEQ ID NO: 2) was introduced by the Lipofectamine2000 two days before induction of differentiation.
After the cultivated 3T3-L1 cells were washed with PBS(−) (Phosphate Buffered Saline solution from which magnesium and calcium had been eliminated), the cells were fixed by 10% formalin. The cells were washed with the PBS(−) to be replaced with 60% isopropanol. After staining for 20 minutes with 18 mg/ml of Oil Red 0 (solvent Isopropanol), the cells were washed with 60% isopropanol and PBS(−) and observed by a microscope.

T1 sequence (Q86TM6 246-617 limits assumed): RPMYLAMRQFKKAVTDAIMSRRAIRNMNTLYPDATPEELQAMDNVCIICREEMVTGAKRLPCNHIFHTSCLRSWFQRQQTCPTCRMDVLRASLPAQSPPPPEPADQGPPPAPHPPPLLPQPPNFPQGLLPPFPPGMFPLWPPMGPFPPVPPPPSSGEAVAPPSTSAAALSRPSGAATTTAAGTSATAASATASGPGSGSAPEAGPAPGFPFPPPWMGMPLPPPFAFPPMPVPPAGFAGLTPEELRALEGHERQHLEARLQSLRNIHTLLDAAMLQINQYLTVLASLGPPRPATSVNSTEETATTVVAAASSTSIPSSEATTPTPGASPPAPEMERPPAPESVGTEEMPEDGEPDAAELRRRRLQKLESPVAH

Compound	self-ubiquitination of synoviolin protein (synoviolin protein)	differentiation of adipose cells (3T3-L1 cells)
CC1=CC(=O)c2c(O)cccc2C1=O [plumbagin, 2-methyl-5-hydroxy-1,4-naphthoquinone]	inhibit	–
5′ -GCUGUGACAGAUGCCAUCA-3′ [siRNA Syno770]	–	differentiation has been suppressed
O=c1c(O)c(-c2ccc(O)c(O)c2)oc2cc(O)cc(O)c12 [quercetin, 2-(3,4-dihydroxyphenyl)-3,5,7-trihydroxy-4H-1-benzopyrano-4-on]	inhibit	–
